± gives the expanded uncertainty stated by the source.
Assay: xn = mol fraction of the nth substance listed
Settings: Liquid, Vibrating tube method

C=C(C)C(=O)OCCN(C)C [2-(dimethylamino)ethyl methylpropenoate] + CCO
mass density [kg/m3]
Settings | 100 kPa | 5000 kPa | 10000 kPa | 15000 kPa | 20000 kPa | 25000 kPa | 30000 kPa | 35000 kPa
293.15 K, x1 = 0.0298 | 802.7 ± 0.51 | 807.13 ± 0.52 | 811.22 ± 0.53 | 815.04 ± 0.54 | 818.66 ± 0.55 | 822.14 ± 0.56 | 825.55 ± 0.57 | 828.95 ± 0.58
293.15 K, x1 = 0.0598 | 814.88 ± 0.51 | 819.12 ± 0.52 | 823.12 ± 0.52 | 826.9 ± 0.53 | 830.51 ± 0.54 | 834 ± 0.55 | 837.41 ± 0.56 | 840.78 ± 0.58
293.15 K, x1 = 0.0999 | 829.26 ± 0.51 | 833.46 ± 0.52 | 837.4 ± 0.52 | 841.12 ± 0.53 | 844.67 ± 0.54 | 848.1 ± 0.55 | 851.44 ± 0.56 | 854.75 ± 0.57
293.15 K, x1 = 0.1997 | 856.9 ± 0.51 | 861.05 ± 0.52 | 864.9 ± 0.52 | 868.5 ± 0.53 | 871.93 ± 0.53 | 875.24 ± 0.54 | 878.49 ± 0.54 | 881.75 ± 0.55
293.15 K, x1 = 0.3001 | 876.95 ± 0.51 | 880.93 ± 0.52 | 884.66 ± 0.52 | 888.19 ± 0.52 | 891.58 ± 0.53 | 894.86 ± 0.53 | 898.09 ± 0.54 | 901.32 ± 0.54
293.15 K, x1 = 0.3966 | 891.39 ± 0.51 | 895.28 ± 0.52 | 898.93 ± 0.52 | 902.38 ± 0.52 | 905.7 ± 0.53 | 908.93 ± 0.53 | 912.15 ± 0.54 | 915.39 ± 0.54
293.15 K, x1 = 0.4472 | 897.49 ± 0.51 | 901.33 ± 0.52 | 904.98 ± 0.52 | 908.47 ± 0.52 | 911.83 ± 0.53 | 915.1 ± 0.53 | 918.3 ± 0.53 | 921.47 ± 0.54
293.15 K, x1 = 0.4982 | 902.96 ± 0.51 | 906.87 ± 0.52 | 910.51 ± 0.52 | 913.95 ± 0.52 | 917.24 ± 0.53 | 920.43 ± 0.53 | 923.58 ± 0.53 | 926.74 ± 0.54
293.15 K, x1 = 0.55 | 907.68 ± 0.51 | 911.66 ± 0.52 | 915.32 ± 0.52 | 918.74 ± 0.53 | 921.98 ± 0.53 | 925.14 ± 0.53 | 928.28 ± 0.53 | 931.5 ± 0.54
293.15 K, x1 = 0.5964 | 911.67 ± 0.52 | 915.5 ± 0.52 | 919.12 ± 0.52 | 922.56 ± 0.53 | 925.87 ± 0.53 | 929.09 ± 0.53 | 932.25 ± 0.54 | 935.39 ± 0.54
293.15 K, x1 = 0.6982 | 918.77 ± 0.52 | 922.55 ± 0.52 | 926.15 ± 0.53 | 929.6 ± 0.53 | 932.93 ± 0.53 | 936.16 ± 0.54 | 939.33 ± 0.54 | 942.44 ± 0.54
293.15 K, x1 = 0.801 | 924.6 ± 0.53 | 928.44 ± 0.53 | 932.04 ± 0.53 | 935.46 ± 0.54 | 938.75 ± 0.54 | 941.94 ± 0.54 | 945.09 ± 0.54 | 948.24 ± 0.55
293.15 K, x1 = 0.8977 | 929.03 ± 0.53 | 932.82 ± 0.54 | 936.35 ± 0.54 | 939.69 ± 0.54 | 942.92 ± 0.55 | 946.09 ± 0.55 | 949.28 ± 0.55 | 952.57 ± 0.55
293.15 K, x1 = 0.9283 | 930.22 ± 0.54 | 934.07 ± 0.54 | 937.67 ± 0.54 | 941.06 ± 0.55 | 944.32 ± 0.55 | 947.48 ± 0.55 | 950.62 ± 0.56 | 953.79 ± 0.56
293.15 K, x1 = 0.9578 | 931.42 ± 0.54 | 935.21 ± 0.54 | 938.78 ± 0.55 | 942.2 ± 0.55 | 945.49 ± 0.55 | 948.71 ± 0.56 | 951.88 ± 0.56 | 955.05 ± 0.56
303.15 K, x1 = 0.03 | 794.45 ± 0.51 | 798.97 ± 0.52 | 803.18 ± 0.53 | 807.13 ± 0.54 | 810.87 ± 0.55 | 814.43 ± 0.56 | 817.87 ± 0.58 | 821.22 ± 0.59
303.15 K, x1 = 0.0603 | 806.55 ± 0.51 | 811.05 ± 0.52 | 815.24 ± 0.53 | 819.16 ± 0.54 | 822.87 ± 0.55 | 826.4 ± 0.56 | 829.79 ± 0.57 | 833.08 ± 0.58
303.15 K, x1 = 0.1002 | 820.45 ± 0.51 | 824.89 ± 0.52 | 829.01 ± 0.52 | 832.87 ± 0.53 | 836.53 ± 0.54 | 840.03 ± 0.55 | 843.44 ± 0.56 | 846.8 ± 0.57
303.15 K, x1 = 0.2021 | 848.13 ± 0.51 | 852.39 ± 0.52 | 856.38 ± 0.52 | 860.15 ± 0.53 | 863.75 ± 0.54 | 867.22 ± 0.54 | 870.62 ± 0.55 | 873.98 ± 0.56
303.15 K, x1 = 0.3014 | 867.56 ± 0.51 | 871.73 ± 0.52 | 875.66 ± 0.52 | 879.39 ± 0.53 | 882.96 ± 0.53 | 886.41 ± 0.54 | 889.8 ± 0.54 | 893.16 ± 0.55
303.15 K, x1 = 0.4003 | 882.15 ± 0.51 | 886.21 ± 0.52 | 890.08 ± 0.52 | 893.8 ± 0.53 | 897.38 ± 0.53 | 900.86 ± 0.54 | 904.27 ± 0.54 | 907.64 ± 0.54
303.15 K, x1 = 0.4499 | 888.16 ± 0.51 | 892.11 ± 0.52 | 895.91 ± 0.52 | 899.59 ± 0.53 | 903.17 ± 0.53 | 906.65 ± 0.53 | 910.06 ± 0.54 | 913.41 ± 0.54
303.15 K, x1 = 0.5006 | 893.42 ± 0.51 | 897.42 ± 0.52 | 901.25 ± 0.52 | 904.92 ± 0.53 | 908.47 ± 0.53 | 911.94 ± 0.53 | 915.35 ± 0.54 | 918.74 ± 0.54
303.15 K, x1 = 0.5488 | 897.81 ± 0.52 | 901.82 ± 0.52 | 905.64 ± 0.52 | 909.31 ± 0.53 | 912.87 ± 0.53 | 916.34 ± 0.53 | 919.76 ± 0.54 | 923.18 ± 0.54
303.15 K, x1 = 0.5998 | 902.09 ± 0.52 | 906.13 ± 0.52 | 909.95 ± 0.52 | 913.6 ± 0.53 | 917.13 ± 0.53 | 920.59 ± 0.54 | 924.04 ± 0.54 | 927.53 ± 0.54
303.15 K, x1 = 0.703 | 909.18 ± 0.52 | 913.16 ± 0.52 | 916.96 ± 0.53 | 920.63 ± 0.53 | 924.18 ± 0.54 | 927.67 ± 0.54 | 931.11 ± 0.54 | 934.54 ± 0.55
303.15 K, x1 = 0.8012 | 914.76 ± 0.53 | 918.73 ± 0.53 | 922.51 ± 0.53 | 926.15 ± 0.54 | 929.69 ± 0.54 | 933.18 ± 0.55 | 936.65 ± 0.55 | 940.15 ± 0.55
303.15 K, x1 = 0.9025 | 919.51 ± 0.53 | 923.46 ± 0.54 | 927.24 ± 0.54 | 930.9 ± 0.55 | 934.45 ± 0.55 | 937.94 ± 0.55 | 941.4 ± 0.56 | 944.86 ± 0.56
303.15 K, x1 = 0.9288 | 920.51 ± 0.54 | 924.41 ± 0.54 | 928.15 ± 0.54 | 931.75 ± 0.55 | 935.26 ± 0.55 | 938.73 ± 0.56 | 942.19 ± 0.56 | 945.69 ± 0.56
303.15 K, x1 = 0.9594 | 921.58 ± 0.54 | 925.48 ± 0.54 | 929.24 ± 0.55 | 932.89 ± 0.55 | 936.45 ± 0.56 | 939.94 ± 0.56 | 943.39 ± 0.56 | 946.82 ± 0.57
313.15 K, x1 = 0.0301 | 785.54 ± 0.51 | 790.39 ± 0.52 | 794.86 ± 0.53 | 799.04 ± 0.54 | 802.99 ± 0.55 | 806.8 ± 0.57 | 810.55 ± 0.58 | 814.3 ± 0.6
313.15 K, x1 = 0.0604 | 797.46 ± 0.51 | 802.1 ± 0.52 | 806.49 ± 0.53 | 810.66 ± 0.54 | 814.64 ± 0.55 | 818.45 ± 0.56 | 822.15 ± 0.58 | 825.75 ± 0.59
313.15 K, x1 = 0.1009 | 811.29 ± 0.51 | 815.85 ± 0.52 | 820.14 ± 0.53 | 824.2 ± 0.54 | 828.09 ± 0.55 | 831.85 ± 0.56 | 835.51 ± 0.57 | 839.13 ± 0.58
313.15 K, x1 = 0.2013 | 838.49 ± 0.51 | 842.83 ± 0.52 | 846.98 ± 0.52 | 850.95 ± 0.53 | 854.76 ± 0.54 | 858.45 ± 0.55 | 862.02 ± 0.55 | 865.49 ± 0.56
313.15 K, x1 = 0.302 | 858.03 ± 0.51 | 862.37 ± 0.52 | 866.49 ± 0.52 | 870.43 ± 0.53 | 874.22 ± 0.53 | 877.88 ± 0.54 | 881.45 ± 0.55 | 884.95 ± 0.55
313.15 K, x1 = 0.401 | 872.35 ± 0.51 | 876.61 ± 0.52 | 880.69 ± 0.52 | 884.61 ± 0.53 | 888.4 ± 0.53 | 892.06 ± 0.54 | 895.62 ± 0.54 | 899.08 ± 0.55
313.15 K, x1 = 0.4507 | 878.39 ± 0.51 | 882.61 ± 0.52 | 886.65 ± 0.52 | 890.55 ± 0.53 | 894.31 ± 0.53 | 897.94 ± 0.54 | 901.47 ± 0.54 | 904.89 ± 0.55
313.15 K, x1 = 0.4984 | 883.4 ± 0.52 | 887.63 ± 0.52 | 891.71 ± 0.52 | 895.63 ± 0.53 | 899.4 ± 0.53 | 903.03 ± 0.54 | 906.52 ± 0.54 | 909.87 ± 0.55
313.15 K, x1 = 0.553 | 888.58 ± 0.52 | 892.77 ± 0.52 | 896.81 ± 0.52 | 900.7 ± 0.53 | 904.45 ± 0.53 | 908.07 ± 0.54 | 911.57 ± 0.54 | 914.96 ± 0.55
313.15 K, x1 = 0.6053 | 892.9 ± 0.52 | 897.11 ± 0.52 | 901.15 ± 0.53 | 905.03 ± 0.53 | 908.77 ± 0.53 | 912.39 ± 0.54 | 915.89 ± 0.54 | 919.29 ± 0.55
313.15 K, x1 = 0.7041 | 899.74 ± 0.52 | 903.88 ± 0.53 | 907.89 ± 0.53 | 911.79 ± 0.53 | 915.55 ± 0.54 | 919.19 ± 0.54 | 922.7 ± 0.55 | 926.09 ± 0.55
313.15 K, x1 = 0.8027 | 905.5 ± 0.53 | 909.63 ± 0.53 | 913.65 ± 0.54 | 917.54 ± 0.54 | 921.29 ± 0.54 | 924.91 ± 0.55 | 928.37 ± 0.55 | 931.68 ± 0.56
313.15 K, x1 = 0.9016 | 910.19 ± 0.53 | 914.28 ± 0.54 | 918.27 ± 0.54 | 922.15 ± 0.55 | 925.92 ± 0.55 | 929.56 ± 0.56 | 933.08 ± 0.56 | 936.46 ± 0.56
313.15 K, x1 = 0.9342 | 911.48 ± 0.54 | 915.6 ± 0.54 | 919.6 ± 0.55 | 923.48 ± 0.55 | 927.25 ± 0.56 | 930.89 ± 0.56 | 934.42 ± 0.56 | 937.83 ± 0.57
313.15 K, x1 = 0.9607 | 912.61 ± 0.54 | 916.71 ± 0.54 | 920.71 ± 0.55 | 924.61 ± 0.55 | 928.4 ± 0.56 | 932.04 ± 0.56 | 935.54 ± 0.57 | 938.88 ± 0.57

Reference: the NIST ThermoML archive (doi:10.1021/acs.jced.8b00975)
